Measurements published in US20260306527A1, “PRMT INHIBITOR COMPOUNDS AND THE USES THEREOF” (Purdue Research Foundation, priority 2023, published 2026).
Where two headings read alike, the source gives them in different places.

Legend:
Type in all cases: biochemical
PRMT4 = target: T1, PRMT4 (Homo sapiens, UniProt Q86X55); test: radioactive assay (Reaction Biology Corp.), inhibition of PRMT4
T1 sequence (Q86X55 1-608): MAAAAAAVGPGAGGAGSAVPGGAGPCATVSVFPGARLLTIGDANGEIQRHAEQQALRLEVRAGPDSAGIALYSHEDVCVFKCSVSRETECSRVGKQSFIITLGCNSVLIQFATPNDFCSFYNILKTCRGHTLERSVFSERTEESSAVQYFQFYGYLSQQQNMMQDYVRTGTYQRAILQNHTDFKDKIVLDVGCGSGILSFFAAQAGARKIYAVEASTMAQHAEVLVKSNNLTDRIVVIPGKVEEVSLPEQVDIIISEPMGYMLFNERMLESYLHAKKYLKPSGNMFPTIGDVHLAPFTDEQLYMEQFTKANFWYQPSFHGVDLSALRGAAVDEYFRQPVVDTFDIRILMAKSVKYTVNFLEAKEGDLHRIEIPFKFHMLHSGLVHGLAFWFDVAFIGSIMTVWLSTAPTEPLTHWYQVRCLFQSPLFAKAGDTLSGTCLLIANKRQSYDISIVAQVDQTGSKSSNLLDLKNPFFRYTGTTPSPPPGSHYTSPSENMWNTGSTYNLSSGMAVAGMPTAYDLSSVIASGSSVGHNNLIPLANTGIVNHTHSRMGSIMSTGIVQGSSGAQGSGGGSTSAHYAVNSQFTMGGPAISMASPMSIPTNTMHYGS
Method: (§1) Next, the inhibition activity of the library was investigated for five PRMT members from type I PRMTs.
(§2) The PRMT 4, 6 and 8 methylation assays were performed by Reaction Biology corp.

PRMT1 = target: T2, PRMT1 (Homo sapiens, UniProt Q99873); test: SAHH-coupled fluorescence assay, inhibition of PRMT1
T2 construct: made in house
T2 sequence (Q99873 whole entry, species assumed): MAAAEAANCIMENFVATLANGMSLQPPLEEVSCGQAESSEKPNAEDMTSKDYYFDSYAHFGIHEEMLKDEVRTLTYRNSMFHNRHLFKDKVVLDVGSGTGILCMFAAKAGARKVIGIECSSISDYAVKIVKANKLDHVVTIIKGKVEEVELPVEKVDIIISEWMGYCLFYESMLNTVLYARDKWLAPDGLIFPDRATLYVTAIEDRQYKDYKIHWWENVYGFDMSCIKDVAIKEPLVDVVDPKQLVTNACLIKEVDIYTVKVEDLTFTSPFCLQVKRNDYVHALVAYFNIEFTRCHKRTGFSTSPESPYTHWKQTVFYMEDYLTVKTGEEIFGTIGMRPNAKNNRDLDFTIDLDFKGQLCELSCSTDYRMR
Method: (§3) A fluorescence-based SAHH-coupled assay was applied to study the inhibition activity of all synthesized compounds on PRMT 1 and 3.
(§4) The PRMT1 methylation assay was performed under the following conditions in a final well volume of 100 μL: 2.5 mM HEPES (pH=7.0), 25 mM NaCl, 25 μM EDTA, 50 μM TCEP, 0.01% Triton X-100, 5 μM SAHH, 0.1 μM PRMT1, 10 μM AdoMet, and 10 μM ThioGlo4. […] The fluorescence signal was monitored on a BMG CLARIOstar microplate reader with excitation at 400 nm and emission at 465 nm for 15 min. Data were processed using GraphPad Prism software 8.0.
as §1
as §4, with “A fluorescence-based SAHH-coupled assay was applied to determine the inhibition activity of all synthesized compounds on PRMT 1 and 3. The PRMT1” for “The PRMT1”, “software 8.0. All experiments were performed in duplicate.” for “software 8.0.”

PRMT8 = PRMT8 (Homo sapiens, UniProt Q9NR22); test: radioactive assay (Reaction Biology Corp.), inhibition of PRMT8
PRMT8, sequence (Q9NR22 whole entry, species assumed): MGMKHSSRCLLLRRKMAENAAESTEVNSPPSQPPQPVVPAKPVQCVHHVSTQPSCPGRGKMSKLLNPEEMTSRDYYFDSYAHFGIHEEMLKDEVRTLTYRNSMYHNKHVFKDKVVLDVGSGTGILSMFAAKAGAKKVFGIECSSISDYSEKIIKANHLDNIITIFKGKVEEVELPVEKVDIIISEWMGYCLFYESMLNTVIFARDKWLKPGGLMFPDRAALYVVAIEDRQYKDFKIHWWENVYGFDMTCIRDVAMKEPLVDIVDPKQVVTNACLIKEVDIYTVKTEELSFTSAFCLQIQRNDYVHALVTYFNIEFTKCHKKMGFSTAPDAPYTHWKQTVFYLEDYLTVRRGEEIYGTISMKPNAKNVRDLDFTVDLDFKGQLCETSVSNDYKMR
Method: as §1, §2

PRMT3 = PRMT3 (Homo sapiens, UniProt O60678); test: SAHH-coupled fluorescence assay, inhibition of PRMT3; parameters: PRMT3 (residues 211-531) was cloned into the pET28a-MHL expression vector; tag of the pET28a-MHL vector (not described); made in house; host or cells: Escherichia coli BL21(DE3)
PRMT3, sequence (O60678 211-531): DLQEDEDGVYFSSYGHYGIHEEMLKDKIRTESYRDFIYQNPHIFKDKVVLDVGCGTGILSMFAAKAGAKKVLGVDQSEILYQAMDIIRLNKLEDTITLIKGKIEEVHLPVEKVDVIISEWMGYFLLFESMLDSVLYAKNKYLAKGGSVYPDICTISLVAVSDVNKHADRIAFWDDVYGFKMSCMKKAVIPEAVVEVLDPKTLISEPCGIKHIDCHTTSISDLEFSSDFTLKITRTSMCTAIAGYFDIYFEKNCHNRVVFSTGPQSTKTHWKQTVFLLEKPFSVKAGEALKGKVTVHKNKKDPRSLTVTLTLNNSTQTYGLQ
Method: as §3
(§5) The PRMT3 methylation assay was performed under the following conditions in a final well volume of 100 μL: 20 mM Tris (pH=7.5), 0.01% Triton X-100, 5 μM SAHH, 0.25 μM PRMT3, 30 μM AdoMet, and 15 μM ThioGlo4. […] Fluorescence was monitored on a BMG CLARIOstar microplate reader with excitation 380 nm and emission 505 nm. Data were processed by using GraphPad Prism software 8.0. All experiments were performed in duplicate.
as §1
as §5, with “8.0.” for “8.0. All experiments were performed in duplicate.”

PRMT6 = PRMT6 (Homo sapiens, UniProt Q96LA8); test: radioactive assay (Reaction Biology Corp.), inhibition of PRMT6
PRMT6, sequence (Q96LA8 whole entry, species assumed): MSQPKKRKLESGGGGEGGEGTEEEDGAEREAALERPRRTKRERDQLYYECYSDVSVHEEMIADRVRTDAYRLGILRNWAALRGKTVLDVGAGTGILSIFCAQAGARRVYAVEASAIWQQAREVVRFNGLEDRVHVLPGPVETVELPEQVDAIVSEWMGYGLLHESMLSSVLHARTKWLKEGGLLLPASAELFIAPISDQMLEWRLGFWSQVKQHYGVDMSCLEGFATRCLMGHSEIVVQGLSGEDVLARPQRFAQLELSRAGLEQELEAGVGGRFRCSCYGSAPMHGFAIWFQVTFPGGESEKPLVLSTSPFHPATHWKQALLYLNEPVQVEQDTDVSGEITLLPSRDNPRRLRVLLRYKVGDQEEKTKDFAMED
Method: as §1, §2

PRMT4 inhibition (PRMT4)	inhibition at 10 µM (PRMT1)	inhibition at 10 µM (PRMT4)	inhibition at 10 µM (PRMT8)	inhibition at 10 µM (PRMT3)	inhibition at 10 µM (PRMT6)	IC50 (PRMT1; read-out: IC50[μM] | PRMT1)	IC50 (PRMT1; read-out: IC50 FOR PRMT1)	PRMT1 inhibition (PRMT1)	Compound
potent and selective PRMT4 inhibitors	–	–	–	–	–	–	–	–	Nc1ncnc2c1ncn2[C@@H]1O[C@H](CN(CCCNCc2cccc(Br)c2)CCNC(=O)NCc2ccccc2)[C@@H](O)[C@H]1O [YD1349]
–	1%	36%	18%	12%	16%	–	–	–	COc1cc2nc(-c3ccccc3O)nc(NCCSC[C@H]3O[C@@H](n4cnc5c(N)ncnc54)[C@H](O)[C@@H]3O)c2cc1OC [Compound 12h]
–	90%	60%	85%	8%	91%	–	0.59 ± 0.071 µM	–	N=C(NCCCSC[C@H]1O[C@@H](n2cnc3c(NCCCc4ccccc4)ncnc32)[C@H](O)[C@@H]1O)NC1CCCC1 [Compound 19d]
–	5%	35%	39%	5%	10%	–	–	–	Nc1ncnc2c1ncn2[C@@H]1O[C@H](CSCCOc2ccc(-c3ccccc3O)cc2)[C@@H](O)[C@H]1O [Compound 14g]
–	87%	58%	85%	5%	83%	–	0.74 ± 0.08 µM	–	N=C(NCCCSC[C@H]1O[C@@H](n2cnc3c(NCCCc4ccccc4)ncnc32)[C@H](O)[C@@H]1O)NCCCc1ccccc1 [Compound 19m]
–	5%	62%	40%	5%	13%	–	–	–	Nc1ncnc2c1ncn2[C@@H]1O[C@H](CSCCOc2ccc(-c3cccc(O)c3)cc2)[C@@H](O)[C@H]1O [Compound 14f]
–	94%	47%	85%	14%	84%	–	0.65 ± 0.062 µM	–	CCCCNC(=N)NCCCSC[C@H]1O[C@@H](n2cnc3c(NCCCc4ccccc4)ncnc32)[C@H](O)[C@@H]1O [Compound 19a]
–	90%	26%	87%	9%	86%	–	0.5 ± 0.075 µM	–	N=C(NCCCSC[C@H]1O[C@@H](n2cnc3c(NCCCc4ccccc4)ncnc32)[C@H](O)[C@@H]1O)NCCc1ccccc1 [Compound 19l]
–	7%	22%	28%	16%	7%	–	–	–	Nc1ncnc2c1ncn2[C@@H]1O[C@H](CSCCOc2ccc(-c3cncnc3)cc2)[C@@H](O)[C@H]1O [Compound 14e]
potent and selective PRMT4 inhibitors	–	–	–	–	–	–	–	–	Nc1ncnc2c1ncn2[C@@H]1O[C@H](CN(CCCNCc2cccc(-c3ccc(Cl)cc3)c2)CCNC(=O)NCc2ccccc2)[C@@H](O)[C@H]1O [YD1305]
–	–	–	–	–	–	–	–	inhibitory effect of YD1375 on PRMT1	N=C(NCCCSCC1CC(n2ccc3c(NCCCc4ccccc4)ncnc32)C(O)C1O)Nc1cccc(Br)c1 (stereo not shown) [YD1375]
selective and potent PRMT4 inhibitor	–	–	–	–	–	–	–	–	N=C(NCCCN(CCNC(=O)NCc1ccccc1)C[C@H]1O[C@@H](n2cnc3c(N)ncnc32)[C@H](O)[C@@H]1O)NC1CCCC1 [YD1289]

The next lines start with the compound.

Compound	PRMT4 inhibition (PRMT4)	inhibition at 10 µM (PRMT1)	inhibition at 10 µM (PRMT4)	inhibition at 10 µM (PRMT8)	inhibition at 10 µM (PRMT3)	inhibition at 10 µM (PRMT6)	IC50 (PRMT1; read-out: IC50[μM] | PRMT1)	IC50 (PRMT1; read-out: IC50 FOR PRMT1)	PRMT1 inhibition (PRMT1)
Nc1ncnc2c1ncn2[C@@H]1O[C@H](CSCCNCc2cccc(-c3cccc(O)c3)c2)[C@@H](O)[C@H]1O [Compound 10i]	–	15%	100%	74%	13%	55%	–	–	–
N=C(NCCCSC[C@H]1O[C@@H](n2cnc3c(N)ncnc32)[C@H](O)[C@@H]1O)NCc1ccccc1 [Compound 5e]	–	95%	97%	97%	61%	98%	0.21 ± 0.0066 µM	–	–
Nc1ccc(-c2ccc(CNC(=O)NCCSC[C@H]3O[C@@H](n4cnc5c(N)ncnc54)[C@H](O)[C@@H]3O)cc2)cc1 [Compound 8a]	–	13%	40%	0%	3%	72%	–	–	–
Nc1ncnc2c1ncn2[C@@H]1O[C@H](CSCCNCc2cccc(-c3ccc(F)c(O)c3)c2)[C@@H](O)[C@H]1O [Compound 10f]	–	7%	99%	80%	20%	54%	–	–	–
Nc1ncnc2c1ncn2[C@@H]1O[C@H](CSCCNC(=O)Nc2ccccc2Br)[C@@H](O)[C@H]1O [Compound 7m]	–	10%	81%	13%	55%	11%	–	–	–
Nc1ncnc2c1ncn2[C@@H]1O[C@H](CSCCNC(=O)NCc2ccc(-c3cccc(O)c3)cc2)[C@@H](O)[C@H]1O [Compound 8d]	–	22%	37%	15%	9%	88%	–	–	–
N=C(NCCCSC[C@H]1O[C@@H](n2cnc3c(NCCCc4ccccc4)ncnc32)[C@H](O)[C@@H]1O)NCC1CCC1 [Compound 1-89]	–	80%	44%	85%	7%	90%	–	0.59 ± 0.073 µM	–
Nc1cccc(-c2ccc(CNC(=O)NCCSC[C@H]3O[C@@H](n4cnc5c(N)ncnc54)[C@H](O)[C@@H]3O)cc2)c1 [Compound 8b]	–	7%	43%	0%	5%	79%	–	–	–
Nc1ncnc2c1ncn2[C@@H]1O[C@H](CSCCNCc2cccc(-c3ccccc3O)c2)[C@@H](O)[C@H]1O [Compound 10j]	–	25%	99%	56%	10%	43%	–	–	–
N=C(NCCSC[C@H]1O[C@@H](n2cnc3c(N)ncnc32)[C@H](O)[C@@H]1O)Nc1ccccc1 [Compound 5b]	–	73%	–	66%	1%	75%	3 ± 0.16 µM	–	–
Nc1ncnc2c1ncn2[C@@H]1O[C@H](CSCCNCc2cccc(-c3cccc4cn[nH]c34)c2)[C@@H](O)[C@H]1O [Compound 10h]	–	1%	100%	58%	12%	82%	–	–	–
Nc1ncnc2c1ncn2[C@@H]1O[C@H](CSCCNCc2cccc(Br)c2)[C@@H](O)[C@H]1O [Compound 9a]	–	11%	–	47%	8%	58%	–	–	–
